Assay results as given in patent US20240173353A1, “UNIVERSAL CHIMERIC ANTIGEN RECEPTOR T-CELL AND APPLICATION THEREOF” (SHANGHAI IASO BIOTECHNOLOGY CO., LTD., priority 2021, published 2024).

Legend:
[1] = tested on: T cells; experiment: T cell activation by anti-CD3/CD28 DynaBeads, CD25/CD69/4-1BB expression by flow cytometry
Description: The inventors pre-treated T cells with dasatinib or DMSO for 5 hr, then activated T cells with anti-CD3/CD28 DynaBeads for 24 hr, and then detected the expression of activation molecules CD25, CD69 and 4-1BB by flow cytometry.
In order to verify the tolerance of the LCK-T316I mutation to the function of dasatinib, the inventors carried out experimental verification on the T cells with LCK edited with different sgRNA lengths prepared in Example 2.
The inventors isolated CD3-positive T cells from human peripheral blood and divided them into eleven portions for processing, with 1e5 cells in each portion. One of these portions was not treated with dasatinib, anti-CD3/CD28 DynaBeads were not added to activate TCR, and this portion was as the initial control group; the other 10 portions of cells were pretreated with different concentrations of dasatinib for 4 hr, ten concentrations ranging from 0 nM to 50 nM were set, and then anti-CD3/CD28 DynaBeads were added to activate TCR signals overnight. On the second day, the expression of CD25, CD69 and 4-1BB activation signals was detected, and the activation of TCR signals was detected. Two replicates were set for each group of experiments.
The inventors divided each of the three groups of edited cells into 6 sub-groups and cultured them in a flat-bottomed 96-well plate. Each sub-group contained two technical replicates, and each well contained 0.15×10^6 cells. […] Subsequently, the cells were cultured for 18 hr. The activated T cell surface marker molecule 4-1BB was detected by using the APC-labeled murine IgG monoclonal antibody, and the activated T cell surface marker molecule CD25 was detected by using the PE-labeled murine IgG monoclonal antibody, and the activated T cell surface marker CD69 was detected by FITC-labeled murine IgG monoclonal antibody.
The inventors conducted research using two groups of T cells (CBE3 control group and Km edited group) in the above experiments. The experimental procedure is basically the same as the above-mentioned experiment (FIG. 32B). The two groups of edited cells were each divided into 7 sub-groups and cultured them in a flat-bottomed 96-well plate. Each sub-group contained two technical replicates, and each well contained 0.15×10^6 cells. […] Subsequently, the cells were cultured for 18 hr. The activated T cell surface marker molecule 4-1BB was detected by using the APC-labeled murine IgG monoclonal antibody, and the activated T cell surface marker molecule CD25 was detected by using the PE-labeled murine IgG monoclonal antibody, and the activated T cell surface marker CD69 was detected by FITC-labeled murine IgG monoclonal antibody.

[2] = tested on: anti-BCMA-CAR-T cells; experiment: CD107a translocation of anti-BCMA-CAR-T cells co-incubated with target cells; format: cell-based, human; conditions: wild-type anti-BCMA CAR-T, adjusted to 0 nM
[3] = tested on: NK cells; experiment: CD107a release of NK cells activated by K562; format: cell-based, human
Description: The inventor used Miltenyi human NK sorting magnetic beads to separate NK cells from human peripheral blood, and used DAKEWE NK medium to culture and expand them in vitro. On Day 8, a population of NK cells with more than 95% having positive CD56 expression could be obtained. These NK cells were taken out and treated with 0 nM, 100 nM and 200 nM dasatinib respectively for 24 hr, and then divided into two groups, one of which was not activated, and the other group was stimulated with MHC-class I molecule-deficient K562 cells for 5 hr. Then, the CD107a release of NK cells were detected in both of them.
The inventors isolated NK cells from human PBMCs, and then cultured and differentiated them in NK medium to obtain CD56-positive NK cells with a purity higher than 95%. The exploration of the threshold of NK activation with dasatinib was carried out with seven concentrations in the range of 0-50 nM, namely 0, 10, 20, 25, 30, 40 and 50 nM, and the treatment was carried out overnight. The next day, the cells were resuspended with NK medium and activated with K562. Lymphocyte activator was used as a positive control for activation, and a part of NK cells that were not activated by K562 were also kept. Two replicates were set for each group. anti-CD107a antibody and monensin were added while carrying out activation, and after co-incubation for 6 hr, the CD107a release of CD56-positive NK cells was detected by flow cytometry.
The inventors isolated NK cells from human PBMCs, and then cultured and differentiated them in NK medium to obtain CD56-positive NK cells with a purity higher than 95%. Three pretreatments were done respectively (1) absence of dasatinib pretreatment; (2) pretreatment with […] pretreatment with 50 nM dasatinib, and the cells were cultured overnight. The next day, the concentration of dasatinib was reduced, and the concentration was adjusted to 0, 7.5, 12.5, 17.5 and 25 nM respectively. […] Two replicates were set for each group.
In order to repeatedly verify that the inhibition of NK cell activation function by dasatinib has an extended effect, the inventors repeated the above experiment. […] After 4 hr of co-incubation, CD107a release from CD56 positive NK cells was detected.
The inventors used CD3-negative cells in human PBMCs, which contained more than 5% of CD56-positive NK cells. […] The next day, the cells were resuspended with NK medium and activated with K562. Lymphocyte activator was used as a positive control for activation, and a part of NK cells that were not activated by K562 were also kept. Two replicates were set for each group. anti-CD107a antibody and monensin were added while carrying out activation, and after co-incubation for 6 hr, the CD107a release of CD56-positive NK cells was detected by flow cytometry.
The inventors isolated NK cells from human PBMCs, and then cultured and differentiated them in NK medium to obtain CD56-positive NK cells with a purity higher than 95%. […] Two replicates were set for each group.

[4] = tested on: CD19-UCART cells; experiment: CD107a release of CD19-UCART co-incubated with Raji, dynamic ponatinib concentration; format: cell-based, human
Description: In this example, the inventors used the prepared CD19-UCART and Km-edited CD19-UCART cells in the experiments. […] The next day, the concentration was adjusted to 0, 50, 100 and 200 nM in the group of 200 nM pretreatment overnight, and the concentration was adjusted to 0, 100, 200 nM and 300 nM in the group of 500 nM pretreatment overnight. […] Two technical replicates were set for each group. After 4 hr of co-incubation, CD107a release in CD8 and CAR double-positive cells was detected.

[5] = CBE3 control group, 200 nM ponatinib
[6] = Km edited group, 500 nM ponatinib
[7] = Km group (30% T316I), 200 nM ponatinib
[8] = Sg12 control group, 200 nM ponatinib
[9] = second experiment, Km group, 200 nM ponatinib

Cc1ccc(C(=O)Nc2ccc(CN3CCN(C)CC3)c(C(F)(F)F)c2)cc1C#Cc1cnc2cccnn12 [ponatinib]
number of cells (survival of T cells) ([1]; 1000 nM ponatinib): significantly reduced
CD25 and 4-1BB double-positive cells [1, 5]: 1.00%
CD25 and CD69 double-positive cells [1, 5]: 5.59%
CD25 and 4-1BB double-positive cells [1, 6]: 2.42%
CD25 and CD69 double-positive cells [1, 6]: 6.75%
CD25 and 4-1BB double-positive cells [1, 7]: 24.1%
CD25 and CD69 double-positive cells [1, 7]: 17.7%
CD25 and 4-1BB double-positive cells [1, 8]: 1.85%
CD25 and CD69 double-positive cells [1, 8]: 5.31%
concentration that effectively inhibits activation of T cells ([1]; in vitro): 200 nM
cells expressing CD25 and 4-1BB [1, 9]: 19.71%
cells expressing CD25 and CD69 [1, 9]: 23.9%
percentage of CD107a positive cells ([2]; 200 nM ponatinib pretreatment, RPMI-8226 4 hr): about 16%
percentage of CD107a positive cells ([2]; 500 nM pretreatment): about 3%
release of CD107a ([3]; NK cells, highest ponatinib pretreatment (200 nM), lowered to 0 nM, K562): above 38%
concentration that effectively inhibits NK cell activation in vitro ([3]; ponatinib): 200 nM
concentration that shuts down activation of CD19-UCART with LCK-T316I mutation [4]: 500 nM
percentage of CD107a-positive cells ([4]; CD19-UCART group, 200 nM pretreatment overnight, adjusted to 0 nM, Raji 4 hr): 17.2%
percentage of CD107a-positive cells ([4]; CD19-UCART group, 200 nM pretreatment, 50 nM): 0.485%
percentage of CD107a-positive cells ([4]; CD19-UCART group, 200 nM pretreatment, 200 nM, Raji 4 hr): 0.735%
percentage of CD107a-positive cells ([4]; CD19-UCART group, 500 nM pretreatment, 300 nM): 0.495%
percentage of CD107a-positive cells ([4]; CD19-UCART group, 500 nM pretreatment, adjusted to 0 nM): 1.73%
percentage of CD107a-positive cells ([4]; Km-edited CD19-UCART group, 200 nM pretreatment, 200 nM): 5.12%
percentage of CD107a-positive cells ([4]; Km-edited CD19-UCART group, 200 nM pretreatment, adjusted to 0 nM): 16.6%
percentage of CD107a-positive cells ([4]; Km-edited CD19-UCART group, 500 nM pretreatment, 300 nM): 1.47%
percentage of CD107a-positive cells ([4]; Km-edited CD19-UCART group, 500 nM pretreatment, adjusted to 0 nM): 11.15%
